Data from BindingDB's records for doi:10.1016/j.bmcl.2018.08.039 (National Institutes of Health, 2018).

Target: Bromodomain-containing protein 4 (Homo sapiens, UniProt O60885)
Assay: Displacement of biotinylated acetylated peptide from recombinant human partial length BRD4 long isoform bromodomain 1/2 (N44 to E460 residues) expressed in Escherichia coli BL21 measured after 1 hr by Bromoscan method

| Compound | Kd |
| --- | --- |
| Cc1noc(C)c1-c1ccc2nc(Cl)nc(NCc3cccc(Cl)c3)c2c1 | 980 nM |
| CNc1nc(NCc2cccc(Cl)c2)c2cc(-c3c(C)noc3C)ccc2n1 | 2900 nM |
| Cc1noc(C)c1-c1ccc2nc(-n3cc(CCO)cn3)nc(NCc3cccc(Cl)c3)c2c1 | 140 nM |
| Cc1noc(C)c1-c1ccc2nc(-c3ccc(CO)nc3)nc(NCc3cccc(Cl)c3)c2c1 | 250 nM |
